Experimental data reported in patent publication US6365126B1, “Learning and short term memory defects with Neurofibromatosis 1 (NF1) expression” (Cold Spring Harbor Laboratory, priority 1997, dated 2002).
Like-named read-outs stand apart in the source and are kept apart here.

How the values were obtained:
[1] = test system: adenylyl cyclase; assay: Adenylyl cyclase activity assay, membrane fractions of adult brain tissues; assay type: biochemical, Drosophila; details: GTPγS 20 μM
Procedure: The adenylyl cyclase activity assay described in Livingstone, M. S., Proc. Natl. Acad. Sci. USA, 82:5992-5996 (1985)) was modified as follows. The membrane fraction was extracted from either male heads with the cuticle removed to leave essentially brain tissue, or from 10 male abdomens. Twenty (20) dissected brains in 850 μl lysis buffer were homogenized, and the membrane fraction was extracted by centrifugation at 178,000 g for 10 minutes. GTPγS (final concentration, 20 μM) was added to stimulate G-protein activated adenylyl cyclase activity immediately after homogenization but before centrifugation. When assaying the basal level of adenylyl cyclase activity, GTPγS was not added. These modifications seemed to amplify the NF1 effect. Calcium concentrations were calculated according to MaxChelator v1.31 (Bers, D. M. et al., Methods. Cell. Biol., 40:3-29 (1994)). […] Biochemical assays provide direct evidence to support the electrophysiological data. Previous experiments have shown that Rut-AC expressed in a cell line can be stimulated not only by Ca^2+/calmodulin, but also by reagents that stimulate G-proteins, including GTPγS and AIF4^- (see Levin, L. R. et al., Cell, 68:479-489 (1992)). First, AC activity in membrane fractions of adult brain tissues was examined. […] Thus, GTPγS-stimulated AC activity consists of two components: one that is NF1-dependent and one that is NF1-independent.

[2] = test system: K^+ currents of body-wall muscle fibers; assay: Two-microelectrode voltage-clamp recording of PACAP38-induced responses, larval body-wall neuromuscular preparation; design: species or system Drosophila
Procedure: PACAP38-induced responses were recorded by the two-microelectrode voltage-clamp method from body-wall muscle fibers of larvae at the third instar (Zhong, Y., Nature, 375:588-592 (1995); Arimura, A. Regulatory Peptides, 37:287-303 (1992); Spengler, D. et al., Nature, 365:170-175 (1993); Jan, L. Y. et al., J. Physiol., 262:189-214 (1976); Wu, C.-F. et al., Science, 220:1076-1078 (1983); Stewart, B. A. et al., J. Comp. Physiol., 175:179-191 (1994)). Electrophysiological recording: The larval body-wall neuromuscular preparation has been described (Zhong, Y. et al., Neuron, 14:527-536 (1995); Zhong, Y., Nature, 375:588-592 (1995); Jan, L. Y. et al., J. Physiol., 262:189-214 (1976); Wu, C.-F. et al., Science, 220:1076-1078 (1983); Stewart, B. A. et al., J Comp Physiol., 175:179-191 (1994)). The setup, saline, recording conditions and voltage paradigms were as described (Zhong, Y. et al., Neuron, 14:527-536 (1995); Zhong, Y., Nature, 375:588-592 (1995)). For recording the PACAP38-induced synaptic current, the membrane potential was clamped at −80 mV. For recording K^+ currents, command voltages were stepped from the holding potential of −80 to −50 and +20 mV, respectively. […] PACAP38 was applied by pressure ejection through a glass electrode positioned near the voltage-clamped muscle membrane. Forskolin and cAMP analogs were applied to the solution bathing the preparation.

[3] = test system: K^+ currents of body-wall muscle fibers; details: cited from earlier work

Nc1nc2c(ncn2[C@@H]2O[C@H](COP(=O)(O)OP(=O)(O)OP(O)(O)=S)[C@@H](O)[C@H]2O)c(=O)[nH]1 [GTPγS]
GTPγS stimulated AC activity compared with control (K33) ([1]; NF1^P1 and NF1^P2 mutant membranes): markedly reduced | GTPγS-stimulated activity compared with the basal level ([1]; NF1 mutant membranes): significant GTPγS-stimulated activity occurred above the basal level

CCCC(=O)Nc1ncnc2c1ncn2[C@@H]1O[C@@H]2COP(=O)(O)O[C@H]2[C@H]1OC(=O)CCC [dibutyryl cAMP]
effect of cAMP analog on the PACAP38 response ([2]; NF1 mutants (NF1^P2 homozygotes, NF1^P1/NF1^P2 larvae)): restore the normal response to PACAP38 | effect of cAMP analog on the PACAP38 response ([2]; wild-type larvae): appeared not to disrupt the PACAP38 response | PACAP38-like enhancement of K^+ currents by cAMP analog alone ([3]; larval neuromuscular preparation, no PACAP38): insufficient

PACAP38
PACAP38-induced enhancement of K^+ currents ([2]; Gap1 null mutants rI^533B1 and rI^533PB): normal enhancement | PACAP38-induced enhancement of K^+ currents ([2]; NF1^P1 and NF1^P2 mutant larvae): abolished | PACAP38-induced inward current ([2]; NF1^P1 and NF1^P2 mutant larvae, membrane potential clamped at -80 mV): remained mostly intact | PACAP38-induced enhancement of K^+ currents ([3]; wild-type larvae, perfusion to the neuromuscular junction): 100 fold
